Drawing on US20110313156A1 (BOEHRINGER INGELHEIM INTERNATIONAL GMBH, priority 2008, published 2011), this text covers remaining activity for 19 molecules.

One experiment deals with T1, ΔPH-PDK1 (aa 51-359; Q66A mutation) (Homo sapiens, UniProt O15530, Q66A).
T1 construct: a shortened PDK1 enzyme (aa 51-359; Q66A mutation) is used; His6 (N, cleaved yes)
T1 sequence (O15530 51-359 Q66A): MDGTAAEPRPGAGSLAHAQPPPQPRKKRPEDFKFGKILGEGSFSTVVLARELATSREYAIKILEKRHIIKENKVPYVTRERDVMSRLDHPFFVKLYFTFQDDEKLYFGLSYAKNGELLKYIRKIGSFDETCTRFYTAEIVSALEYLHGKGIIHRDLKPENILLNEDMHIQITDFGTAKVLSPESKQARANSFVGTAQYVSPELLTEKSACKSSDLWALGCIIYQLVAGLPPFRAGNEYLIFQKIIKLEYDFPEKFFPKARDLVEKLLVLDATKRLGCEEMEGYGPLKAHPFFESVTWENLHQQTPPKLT
The experiment in a line: PDK1 kinase assay II (shortened enzyme). In kind it is biochemical. The conditions noted are these: compound at 10 μM, one asterisk: incubation for 24 h, read-out: % CTL (residual activity of the enzyme relative to DMSO control). The method, then:
Another assay was developed in which a shortened PDK1 enzyme (aa 51-359; Q66A mutation) is used that carries in the N-terminal position a His6 tag that is cleaved during purification. (ΔPH-PDK1).
The following components are combined in a well of a 96-well round-based dish (Messrs. Greiner bio-one, No. 650101): • 15 μL of compound to be tested in varying concentrations (e.g. Starting at 10 μM, and diluted in steps of 1:5) in 3.33% DMSO (final concentration 1% DMSO)/assay buffer (50 mM Tris pH 7.5, 0.05% β-mercaptoethanol, 10 mM Mg-acetate) • 15 μL (ΔPH-PDK1; 12 ng/well) and PDKtide ([…]-QEMFRDFDYIADWC) synthesised by Pepceuticals Limited, Nottingham, United Kingdom; 25 μM final concentration); (ΔPH-PDK1 and PDKtide are together diluted accordingly in assay buffer; PDKtide is present in this mixture as an 83.3 μM solution. These 30 […] are incubated for 24 h at RT before ATP solution is added. • 20 μL ATP solution (25 μM ATP with 1.0 μCi/well gamma-P33-ATP)
The reaction is started by adding the ATP solution and the mixture is incubated for 120 min at ambient temperature; at the start of the reaction the dishes are shaken gently. The reaction is stopped by the addition of 50 μL/well of 500 mM phosphoric acid (H3PO4) and incubated for about 20 min at ambient temperature. The precipitate is transferred by harvesting onto filter plates (96-well microtitre filter plate: UniFilter GF/C; Messrs Perkin Elmer; No. 6005174), then washed 6 times with 50 mM H3PO4 and dried at 60° C. Then the plate is stuck down with sealing tape, 25 μL/well of scintillation solution (Microscint 0; Messrs. Perkin Elmer; No. 6013611) are added and the amount of P33 precipitated is measured using the Wallac Betacounter. The measured data are evaluated using Graphpad Prism software.
The % CTL values indicate the residual activity of the enzyme after the addition of the inhibitory compound in the solvent DMSO in relation to the enzyme activity in the solvent DMSO without the addition of a compound (control). The majority of the values were determined using the PDK1 kinase assay III described hereinbefore. The values marked with an asterisk (* or**) were determined using the PDK1 kinase assay II described hereinbefore (one asterisk→incubation for 24 h; two asterisks→incubation for 5 min)
For the molecule `CN1CCC(N(C)c2ccc(Nc3ncc4cc(/C=C/CNC(=O)c5cc(Cl)nn(Cc6ccc(F)c(F)c6)c5=O)ccc4n3)cc2)CC1` [IV-40, 6-chloro-2-(3,4-difluorobenzyl)-N-{3-[2-({4-[methyl(1-methylpiperidin-4-yl)amino]phenyl}amino)quinazolin-6-yl]prop-2-en-1-yl}-3-oxo-2,3-dihydropyridazine-4-carboxamide], the remaining activity at 10 µM worked out at 25.4%.

`Cc1ncc(C(=O)NC/C=C/c2ccc3nc(Nc4ccc(N(C)C5CCN(C)CC5)cc4)ncc3c2)c(=O)n1Cc1ccc(F)c(F)c1`: the remaining activity at 10 µM was determined as 5.8%.

Take `Cc1c(C(=O)NCC#Cc2cc3cnc(Nc4ccccc4)nc3n(C)c2=O)c(=O)n(Cc2ccc(F)c(F)c2)n1C` [III-23, 2-(3,4-difluorobenzyl)-1,5-dimethyl-N-{3-[8-methyl-7-oxo-2-(phenylamino)-7,8-dihydropyrido[2,3-d]pyrimidin-6-yl]prop-2-yn-1-yl}-3-oxo-2,3-dihydro-1H-pyrazole-4-carboxamide]: the remaining activity at 10 µM is 9.1%.

As for `CN1CCC(Nc2ccc(Nc3ncc4cc(C#CCNC(=O)c5cncn(Cc6ccc(F)c(F)c6)c5=O)ccc4n3)cc2F)CC1` [III-31, 1-(3,4-difluorobenzyl)-N-{3-[2-({3-fluoro-4-[(1-methylpiperidin-4-yl)amino]-phenyl}amino)quinazolin-6-yl]prop-2-yn-1-yl}-6-oxo-1,6-dihydropyrimidine-5-carboxamide], the remaining activity at 10 µM stood at 6.5%.

`Cc1c(C(=O)NCC#Cc2ccc3nc(Nc4ccc(C(=O)NCCO)cc4)ncc3c2)c(=O)n(Cc2ccc(F)c(F)c2)n1C`: the remaining activity at 10 µM worked out at 12.1%.

Consider `Cc1nc[nH]c1/C=C1\C(=O)Nc2cc(/C=C/CNC(=O)c3c(C)n(C)n(Cc4ccc(F)c(F)c4)c3=O)ccc21` [I-18, 2-(3,4-difluorobenzyl)-1,5-dimethyl-N-[(2E)-3-{(3Z)-3-[(4-methyl-1H-imidazol-5-yl)methylidene]-2-oxo-2,3-dihydro-1H-indol-6-yl}prop-2-en-1-yl]-3-oxo-2,3-dihydro-1H-pyrazole-4-carboxamide], for which the remaining activity at 10 µM worked out at 6.6%.

Take `Cc1c(C#CCNC(=O)c2c(C)n(C)n(Cc3ccc(F)c(F)c3)c2=O)c(=O)n(C(C)C)c2nc(Nc3ccc(N4CCOCC4)cc3)ncc12` [III-28, 2-(3,4-difluorobenzyl)-1,5-dimethyl-N-{3-[5-methyl-2-{[4-(morpholin-4-yl)phenyl]amino}-7-oxo-8-(propane-2-yl)-7,8-dihydropyrido[2,3-d]pyrimidin-6-yl]prop-2-yn-1-yl}-3-oxo-2,3-dihydro-1H-pyrazole-4-carboxamide]: the remaining activity at 10 µM was found to be 13.8%.

Consider `CN1CCN(c2ccc(Nc3ncc4cc(/C=C/CNC(=O)c5cncn(Cc6ccc(F)c(F)c6)c5=O)ccc4n3)cc2)CC1` [IV-4, 1-(3,4-difluorobenzyl)-N-[(2E)-3-(2-{[4-(4-methylpiperazin-1-yl)phenyl]-amino}quinazolin-6-yl)prop-2-en-1-yl]-6-oxo-1,6-dihydropyrimidine-5-carboxamide], for which the remaining activity at 10 µM was 67.3%.

Take `C/C(=C\c1ccc2c(c1)NC(=O)/C2=C\c1cnc[nH]1)CNC(=O)c1cncn(Cc2ccc(F)c(F)c2)c1=O` [I-45, 1-(3,4-difluorobenzyl)-N-{(2E)-3-[(3Z)-3-(1H-imidazol-5-ylmethylidene)-2-oxo-2,3-dihydro-1H-indol-6-yl]-2-methylprop-2-en-1-yl}-6-oxo-1,6-dihydropyrimidine-5-carboxamide]: the remaining activity at 10 µM amounted to 7.9%.

The same experiment, now with this note: compound at 10 μM, two asterisks: incubation for 5 min, read-out: % CTL (residual activity of the enzyme relative to DMSO control).
For `CN(C)Cc1ccc(Nc2ncc3cc(C#CCNC(=O)c4cn(C)c(=O)n(Cc5ccc(F)c(F)c5)c4=O)ccc3n2)cc1` [III-21, 3-(3,4-difluorobenzyl)-N-{3-[2-({4-[(dimethylamino)methyl]phenyl}amino)-quinazolin-6-yl]prop-2-yn-1-yl}-1-methyl-2,4-dioxo-1,2,3,4-tetrahydropyrimidine-5-carboxamide], the remaining activity at 10 µM was 33%.

The next experiment deals with T2, His6-PDK1 (aa 52-556) (Homo sapiens, UniProt O15530).
T2 construct: 15 μL His6-PDK1 (aa 52-556) 3.33 ng/well); host or cells: baculovirus-infected insect cells
T2 sequence (O15530 52-556): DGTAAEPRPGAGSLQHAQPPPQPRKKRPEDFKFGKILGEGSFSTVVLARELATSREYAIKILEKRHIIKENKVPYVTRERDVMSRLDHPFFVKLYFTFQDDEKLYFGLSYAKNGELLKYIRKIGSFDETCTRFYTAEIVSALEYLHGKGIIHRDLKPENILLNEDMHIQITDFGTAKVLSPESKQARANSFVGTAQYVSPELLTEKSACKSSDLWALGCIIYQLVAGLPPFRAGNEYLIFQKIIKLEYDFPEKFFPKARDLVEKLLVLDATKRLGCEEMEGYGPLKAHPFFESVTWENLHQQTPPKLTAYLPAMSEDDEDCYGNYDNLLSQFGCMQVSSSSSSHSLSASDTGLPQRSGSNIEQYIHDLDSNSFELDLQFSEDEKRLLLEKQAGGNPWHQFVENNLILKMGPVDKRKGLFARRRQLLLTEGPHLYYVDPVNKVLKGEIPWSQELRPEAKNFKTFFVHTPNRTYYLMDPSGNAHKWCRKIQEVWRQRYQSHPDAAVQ
The experiment in a line: PDK1 kinase assay III (with Tween 20). In kind it is biochemical. The settings on record: compound at 10 μM; PDK1 kinase assay III (values without asterisk); read-out: % CTL (residual activity of the enzyme relative to DMSO control). The method, boiled down:
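Started with ATP, incubated 90 min at ambient temperature, then stopped with phosphoric acid. Asterisked values come from assay II (24 h or 5 min incubation).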
On to `O=C(NC/C=C/c1ccc2ncncc2c1)c1cncn(Cc2ccc(F)c(F)c2)c1=O` [IV-56, 1-(3,4-difluorobenzyl)-6-oxo-N-[(2E)-3-(quinazolin-6-yl)prop-2-en-1-yl]-1,6-dihydropyrimidine-5-carboxamide], for which the remaining activity at 10 µM amounted to 18.8%.

Consider `Cc1c(C(=O)NC/C=C/c2ccc3nc(Nc4ccc(CN(C)C)cc4)ncc3c2)c(=O)n(Cc2ccc(F)c(F)c2)n1C` [IV-21, 2-(3,4-difluorobenzyl)-N-{(2E)-3-[2-({4-[(dimethylamino)methyl]phenyl}amino)-quinazolin-6-yl]prop-2-en-1-yl}-1,5-dimethyl-3-oxo-2,3-dihydro-1H-pyrazole-4-carboxamide], for which the remaining activity at 10 µM was 11.2%.

On to `O=C(NC/C=C/c1ccc2nc(NC3CC3)ncc2c1)c1cncn(Cc2ccc(F)c(F)c2)c1=O`, for which the remaining activity at 10 µM came out at 17%.

Turning to `Cc1c(C(=O)NCC#Cc2ccc3nc(Nc4ccc(C#N)cc4)ncc3c2)c(=O)n(Cc2ccc(F)c(F)c2)n1C` [III-45, N-(3-{2-[(4-cyanophenyl)amino]quinazolin-6-yl}prop-2-yn-1-yl)-2-(3,4-difluorobenzyl)-1,5-dimethyl-3-oxo-2,3-dihydro-1H-pyrazole-4-carboxamide], the remaining activity at 10 µM stood at 19.8%.

For `Cc1c(C(=O)NCC#Cc2ccc3nc(Nc4ccc(C(=O)NC5CCN(C6CC6)CC5)cc4)ncc3c2)c(=O)n(Cc2ccc(F)c(F)c2)n1C`, the remaining activity at 10 µM was determined as 11.6%.

On to `Cc1c(C(=O)NC/C=C/c2ccc3nc(Nc4ccc(C(=O)NC5CCN(C)CC5)c(F)c4)ncc3c2)c(=O)n(Cc2ccc(F)c(F)c2)n1C`, for which the remaining activity at 10 µM was determined as 18.1%.

Regarding `Cc1c[nH]c(/C=C2\C(=O)Nc3cc(/C=C/CNC(=O)c4c(C)n(C)n(Cc5ccc(F)c(F)c5)c4=O)ccc32)n1` [I-42, 2-(3,4-difluorobenzyl)-1,5-dimethyl-N-[(2E)-3-{(3Z)-3-[(4-methyl-1H-imidazol-2-yl)methylidene]-2-oxo-2,3-dihydro-1H-indol-6-yl}prop-2-en-1-yl]-3-oxo-2,3-dihydro-1H-pyrazole-4-carboxamide], the remaining activity at 10 µM came out at 15.7%.

As to `Cc1c(C(=O)NCC#Cc2ccc3nc(Nc4ccccc4)ncc3c2)c(=O)n(Cc2ccc(F)c(F)c2)n1C` [III-15, 2-(3,4-difluorobenzyl)-1,5-dimethyl-3-oxo-N-{3-[2-(phenylamino)quinazolin-6-yl]prop-2-yn-1-yl}-2,3-dihydro-1H-pyrazole-4-carboxamide], the remaining activity at 10 µM amounted to 19.1%.

In the case of `CCOC(=O)c1ccc(Nc2ncc3cc(/C=C/CNC(=O)c4cncn(Cc5ccc(F)c(F)c5)c4=O)ccc3n2)cc1` [IV-53, ethyl-4-({6-[(1E)-3-({[1-(3,4-difluorobenzyl)-6-oxo-1,6-dihydropyrimidin-5-yl]carbonyl}amino)prop-1-en-1-yl]quinazolin-2-yl}amino)benzoate], the remaining activity at 10 µM was determined as 33.4%.
